This passage reports GI50 and TGI results from PubChem BioAssay (NCI).

Test systems include TK-10 renal; OVCAR-8 ovarian; HOP-92 NSCLC; NCI-H23 lung; OVCAR-4 ovarian; DU-145 prostate; UACC-62 melanoma; SNB-19 CNS; CAKI-1 renal; SN12C renal.
Common to all, as to experiment: NCI-60 cell line screen, 48 h

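96-well plates; 48 h exposure; 5 concentrations. Endpoints by linear interpolation between flanking doses. Not reached: highest tested concentration assigned. At the GI50, growth is halved. TGI: total growth inhibition.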

In the case of `COc1ccc(C(=O)/C=C/c2c(Cl)c3c(c(OC)c2Cl)OCC(=O)N3)cc1`, the GI50 is 2.55 µM with TK-10 renal; 2.85 µM in the assay with OVCAR-8 ovarian; 2.44 µM in the assay on HOP-92 NSCLC; 2.23 µM in the assay on NCI-H23 lung; 2.56 µM in the assay on OVCAR-4 ovarian; 3.17 µM with DU-145 prostate. Further, the GI50 in the assay with UACC-62 melanoma is 1.68 µM. The TGI in the assay on TK-10 renal is 6.09 µM; in the assay on OVCAR-8 ovarian, 16.3 µM; in the assay on HOP-92 NSCLC, 8.88 µM; in the assay on NCI-H23 lung, 4.85 µM; with OVCAR-4 ovarian, 8.04 µM; in the assay on DU-145 prostate it was above 100 µM. For the same compound, in the assay on UACC-62 melanoma, the TGI worked out at 3.59 µM.

With `NNC(=O)Cn1c2ccc(Br)cc2c2nc3ccccc3nc21`, the TGI in the assay on TK-10 renal, with OVCAR-8 ovarian, in the assay on NCI-H23 lung, with SNB-19 CNS, with DU-145 prostate and with CAKI-1 renal was above 100 µM throughout. Also, the TGI with UACC-62 melanoma and in the assay with SN12C renal was above 100 µM in each case.

With `Cc1cc(N2CCCC2)nc(N(CCNc2ccnc3cc(Cl)ccc23)Cc2ccco2)n1`, the GI50 with TK-10 renal is 5.46 µM; with OVCAR-8 ovarian, 4.35 µM; in the assay with HOP-92 NSCLC, 1.88 µM; in the assay with NCI-H23 lung it was 2.75 µM; in the assay on OVCAR-4 ovarian, 3.22 µM; in the assay with SNB-19 CNS, 5.67 µM. Further, the GI50 in the assay on DU-145 prostate was 6.72 µM; in the assay with UACC-62 melanoma, 4.11 µM; with SN12C renal it was 3.88 µM. Also, the TGI in the assay with TK-10 renal is 31.3 µM; in the assay with OVCAR-8 ovarian, above 100 µM; in the assay with HOP-92 NSCLC, 13.2 µM; in the assay with NCI-H23 lung, above 100 µM; in the assay with OVCAR-4 ovarian, above 100 µM; in the assay with SNB-19 CNS, 70.2 µM. For the same compound, the TGI in the assay on DU-145 prostate was above 100 µM; with UACC-62 melanoma, 78.2 µM; in the assay on SN12C renal it was above 100 µM.

As for `COc1ccc(-c2cc(-c3ccc(Nc4ccnc5cc(Cl)ccc45)cc3)[nH]c(=O)c2C#N)c2ccccc12`, the TGI in the assay on TK-10 renal was 29.7 µM; with OVCAR-8 ovarian, 5.41 µM; with HOP-92 NSCLC it was 30.8 µM; in the assay on NCI-H23 lung, above 91.6 µM; with SNB-19 CNS it was above 23.4 µM; in the assay on DU-145 prostate it was above 32.7 µM. The TGI with CAKI-1 renal is 48.4 µM; with UACC-62 melanoma, 46.7 µM; in the assay on SN12C renal, 46.9 µM.

For `C(CCCCc1nnc(N2CCCCC2)o1)CCCc1nnc(N2CCCCC2)o1`, the TGI in the assay on TK-10 renal, in the assay on OVCAR-8 ovarian, with HOP-92 NSCLC, with NCI-H23 lung, in the assay with OVCAR-4 ovarian and in the assay with SNB-19 CNS was above 100 µM throughout. The TGI with DU-145 prostate, with CAKI-1 renal and in the assay on SN12C renal was above 100 µM throughout.

As to `c1cn(C23C4C5C6C4C2C6C53)cn1` (stereo not drawn), the TGI with TK-10 renal, in the assay with OVCAR-8 ovarian, with NCI-H23 lung, in the assay with SNB-19 CNS, in the assay with DU-145 prostate and in the assay with SN12C renal was above 100 µM in each case.

For `COc1cc2cc[n+]3c(C)c4cc(OC)c(OC)cc4c([O-])c3c2cc1OC`, the TGI with TK-10 renal, in the assay with OVCAR-8 ovarian, in the assay with HOP-92 NSCLC, with NCI-H23 lung, in the assay with OVCAR-4 ovarian and in the assay with SNB-19 CNS was above 100 µM each time. Further, the TGI in the assay with CAKI-1 renal, with UACC-62 melanoma and with SN12C renal was above 100 µM each time.

`COc1ccc(-n2c(=O)n(C)c(=O)n2-c2ccc(OC)cc2)cc1`: the TGI in the assay with TK-10 renal, in the assay on OVCAR-8 ovarian, with HOP-92 NSCLC, in the assay on NCI-H23 lung, with SNB-19 CNS and in the assay on DU-145 prostate was above 100 µM each time. The TGI with CAKI-1 renal, with UACC-62 melanoma and with SN12C renal was above 100 µM in each case.

With `O=C1c2cc3c(cc2CC12Cc1ccc4c(c1C2=O)CCCC4)CCCC3` (stereo not drawn), the TGI in the assay on TK-10 renal is above 100 µM; with OVCAR-8 ovarian, above 100 µM; in the assay on HOP-92 NSCLC it was 64.2 µM; in the assay with NCI-H23 lung, above 100 µM; with OVCAR-4 ovarian, 62.8 µM; in the assay with SNB-19 CNS it was above 100 µM. In addition, the TGI with DU-145 prostate and with CAKI-1 renal was above 100 µM in each case.

For `COC1OC2COC1(OC)C1OC(C)(C)OC21` (stereo not drawn), the TGI with TK-10 renal, in the assay on OVCAR-8 ovarian, in the assay with NCI-H23 lung, with OVCAR-4 ovarian, with SNB-19 CNS and in the assay on DU-145 prostate was above 100 µM each time. The TGI in the assay with CAKI-1 renal, in the assay on UACC-62 melanoma and in the assay with SN12C renal was above 100 µM in each case.

On to `CCOC(=O)C(NC(=O)CC)(Nc1cc(C)on1)C(F)(F)F` (stereo not drawn), for which the TGI with TK-10 renal, with OVCAR-8 ovarian, in the assay on NCI-H23 lung, in the assay with SNB-19 CNS and in the assay with SN12C renal was above 100 µM in each case.

`CCCCCC(C)SC1(C(=O)OC)CC(OC(C)=O)C(NC(C)=O)C([C@H](OC(C)=O)[C@@H](COC(C)=O)OC(C)=O)O1` (stereo partly drawn): the TGI in the assay on TK-10 renal, with OVCAR-8 ovarian, in the assay with HOP-92 NSCLC, with NCI-H23 lung, in the assay with SNB-19 CNS and in the assay with DU-145 prostate was above 100 µM each time. The TGI in the assay on CAKI-1 renal and in the assay with SN12C renal was above 100 µM in each case.

Take `Cc1c(NC(=O)CSC(=S)N2CCN(Cc3ccccc3)CC2)c(=O)n(-c2ccccc2)n1C`: the TGI in the assay on TK-10 renal, with OVCAR-8 ovarian, in the assay on NCI-H23 lung, with OVCAR-4 ovarian, with SNB-19 CNS and with DU-145 prostate was above 100 µM each time. Besides, the TGI in the assay on CAKI-1 renal and in the assay with SN12C renal was above 100 µM each time.

On to `O=C(O)c1ccn(-c2cccc(-n3ccc(C(=O)O)n3)n2)n1`, for which the TGI in the assay on TK-10 renal, in the assay with OVCAR-8 ovarian, with NCI-H23 lung, in the assay on OVCAR-4 ovarian, in the assay on SNB-19 CNS and in the assay with DU-145 prostate was above 100 µM in each case. The TGI in the assay on CAKI-1 renal, in the assay with UACC-62 melanoma and in the assay with SN12C renal was above 100 µM in each case.

On to `CCOc1cc(C2CC(c3ccc(NS(=O)(=O)c4cc([N+](=O)[O-])ccc4C)cc3)=NN2c2ccc([N+](=O)[O-])cc2[N+](=O)[O-])ccc1O` (stereo not drawn), for which the TGI stood at 33.7 µM in the assay with TK-10 renal; 49 µM in the assay on OVCAR-8 ovarian; 29.3 µM in the assay with HOP-92 NSCLC; 42.9 µM in the assay on NCI-H23 lung; 11 µM with OVCAR-4 ovarian; 34.5 µM in the assay on SNB-19 CNS. For the same compound, the TGI in the assay with DU-145 prostate was found to be 45.1 µM; in the assay on CAKI-1 renal, 56.5 µM; in the assay with SN12C renal it was 9.97 µM.
